Data as given in ChEMBL document CHEMBL1201862, “PubChem BioAssay data set” (2004).
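Each compound was tested at five concentrations against cells in 96-well plates for 48 hours. GI50 = concentration required for 50% inhibition of growth.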 The source made the active and inactive calls. Rule as the data show it: active = GI50 up to about 1.1 µM and inactive = higher.

Tests used:
Experiment in all cases: NCI anticancer screen, dose series, 48 h
[1] = test system: SW-620
[2] = test system: OVCAR-3
[3] = test system: PC-3
[4] = test system: SR
[5] = test system: COLO 205
[6] = test system: UO-31
[7] = test system: A549
[8] = test system: KM12
[9] = test system: LOX IMVI
[10] = test system: MDA-MB-435
[11] = test system: Hs-578T
[12] = test system: OVCAR-8
[13] = test system: RPMI-8226
[14] = test system: NCI-H460
[15] = test system: TK-10
[16] = test system: 786-0
[17] = test system: NCI-H522
[18] = test system: ACHN
[19] = test system: SF-539
[20] = test system: SN12C
[21] = test system: U-251
[22] = test system: NCI-H226
[23] = test system: SNB-75
[24] = test system: EKVX
[25] = test system: HL-60
[26] = test system: DU-145
[27] = test system: SF-295
[28] = test system: HOP-62
[29] = test system: MCF7
[30] = test system: NCI-H23
[31] = test system: SF-268
[32] = test system: SK-OV-3
[33] = test system: SK-MEL-5
[34] = test system: CAKI-1
[35] = test system: HCT-116
[36] = test system: NCI/ADR-RES
[37] = test system: IGROV-1
[38] = test system: UACC-257
[39] = test system: T47D
[40] = test system: CCRF-CEM
[41] = test system: SK-MEL-28
[42] = test system: M14
[43] = test system: MDA-N
[44] = test system: UACC-62
[45] = test system: BT-549
[46] = test system: MOLT-4
[47] = test system: SNB-19
[48] = test system: HCC 2998
[49] = test system: OVCAR-4
[50] = test system: OVCAR-5
[51] = test system: HT-29
[52] = test system: SK-MEL-2
[53] = test system: HCT-15
[54] = test system: Malme-3M
[55] = test system: K562
[56] = test system: HOP-92
[57] = test system: RXF 393
[58] = test system: A498

Compound: Cc1ncc([N+](=O)[O-])n1CCNC(=O)CCn1ccnc1[N+](=O)[O-]
- GI50 [1]: > 100 µM (inactive)
- GI50 [2]: > 100 µM (inactive)
- GI50 [3]: > 100 µM (inactive)
- GI50 [4]: > 100 µM (inactive)
- GI50 [5]: > 100 µM (inactive)
- GI50 [6]: > 100 µM (inactive)
- GI50 [7]: > 100 µM (inactive)
- GI50 [8]: > 100 µM (inactive)
- GI50 [9]: > 100 µM (inactive)
- GI50 [10]: > 100 µM (inactive)
- GI50 [11]: 66.8 µM (inactive)
- GI50 [12]: > 100 µM (inactive)
- GI50 [13]: > 100 µM (inactive)
- GI50 [14]: > 100 µM (inactive)
- GI50 [15]: > 100 µM (inactive)
- GI50 [16]: > 100 µM (inactive)
- GI50 [17]: > 100 µM (inactive)
- GI50 [18]: > 100 µM (inactive)
- GI50 [19]: > 100 µM (inactive)
- GI50 [20]: > 100 µM (inactive)
- GI50 [21]: > 100 µM (inactive)
- GI50 [22]: > 100 µM (inactive)
- GI50 [23]: > 100 µM (inactive)
- GI50 [24]: > 100 µM (inactive)
- GI50 [25]: > 100 µM (inactive)
- GI50 [26]: > 100 µM (inactive)
- GI50 [27]: > 100 µM (inactive)
- GI50 [28]: > 100 µM (inactive)
- GI50 [29]: > 100 µM (inactive)
- GI50 [30]: > 100 µM (inactive)
- GI50 [31]: > 100 µM (inactive)
- GI50 [32]: > 100 µM (inactive)
- GI50 [33]: > 100 µM (inactive)
- GI50 [34]: > 100 µM (inactive)
- GI50 [35]: > 100 µM (inactive)
- GI50 [36]: > 100 µM (inactive)
- GI50 [37]: > 100 µM (inactive)
- GI50 [38]: > 100 µM (inactive)
- GI50 [39]: > 100 µM (inactive)
- GI50 [40]: > 100 µM (inactive)
- GI50 [41]: > 100 µM (inactive)
- GI50 [42]: > 100 µM (inactive)
- GI50 [43]: > 100 µM (inactive)
- GI50 [44]: > 100 µM (inactive)
- GI50 [45]: > 100 µM (inactive)
- GI50 [46]: > 100 µM (inactive)
- GI50 [47]: > 100 µM (inactive)
- GI50 [48]: > 100 µM (inactive)
- GI50 [49]: > 100 µM (inactive)
- GI50 [50]: > 100 µM (inactive)
- GI50 [51]: > 100 µM (inactive)
- GI50 [52]: > 100 µM (inactive)
- GI50 [53]: > 100 µM
- GI50 [54]: > 100 µM (inactive)
- GI50 [55]: > 100 µM (inactive)

Compound: CCOc1cc(NC(C)=O)ccc1C(=O)NN1C(=O)/C(=C/c2ccco2)N=C1c1ccccc1
- GI50 [56]: 36.2 µM (inactive)
- GI50 [1]: > 100 µM (inactive)
- GI50 [2]: > 100 µM (inactive)
- GI50 [3]: > 100 µM (inactive)
- GI50 [4]: 41.5 µM (inactive)
- GI50 [5]: > 100 µM (inactive)
- GI50 [6]: 61.7 µM (inactive)
- GI50 [7]: > 100 µM (inactive)
- GI50 [8]: > 100 µM (inactive)
- GI50 [9]: > 100 µM (inactive)
- GI50 [10]: > 100 µM (inactive)
- GI50 [11]: 42.8 µM (inactive)
- GI50 [12]: 41.2 µM (inactive)
- GI50 [13]: 15.1 µM (inactive)
- GI50 [14]: > 100 µM (inactive)
- GI50 [16]: > 100 µM (inactive)
- GI50 [17]: 24.9 µM (inactive)
- GI50 [18]: > 100 µM (inactive)
- GI50 [19]: > 100 µM (inactive)
- GI50 [20]: > 100 µM (inactive)
- GI50 [57]: > 100 µM (inactive)
- GI50 [22]: > 100 µM (inactive)
- GI50 [23]: > 100 µM (inactive)
- GI50 [24]: 74.3 µM (inactive)
- GI50 [25]: > 100 µM (inactive)
- GI50 [26]: > 100 µM (inactive)
- GI50 [27]: > 100 µM (inactive)
- GI50 [28]: > 100 µM (inactive)
- GI50 [29]: > 100 µM (inactive)
- GI50 [30]: > 100 µM (inactive)
- GI50 [31]: > 100 µM (inactive)
- GI50 [32]: > 100 µM (inactive)
- GI50 [33]: 54.6 µM (inactive)
- GI50 [34]: > 100 µM (inactive)
- GI50 [35]: > 100 µM (inactive)
- GI50 [36]: > 100 µM (inactive)
- GI50 [37]: > 100 µM (inactive)
- GI50 [38]: > 100 µM (inactive)
- GI50 [39]: > 100 µM (inactive)
- GI50 [40]: > 100 µM (inactive)
- GI50 [41]: > 100 µM (inactive)
- GI50 [42]: > 100 µM (inactive)
- GI50 [43]: > 100 µM (inactive)
- GI50 [58]: > 100 µM (inactive)
- GI50 [44]: > 100 µM (inactive)
- GI50 [45]: > 100 µM (inactive)
- GI50 [46]: 22.3 µM (inactive)
- GI50 [47]: > 100 µM (inactive)
- GI50 [48]: > 100 µM (inactive)
- GI50 [49]: > 100 µM (inactive)
- GI50 [50]: > 100 µM (inactive)
- GI50 [51]: > 100 µM (inactive)
- GI50 [52]: > 100 µM (inactive)
- GI50 [53]: > 100 µM
- GI50 [54]: > 100 µM (inactive)
- GI50 [55]: 26.8 µM (inactive)
